≈ marks a conversion by molar mass, not a printed value. One block for each compound: values may come before it. Calls of active or inactive are those of the source. Unless noted, the rule behind the calls is not given here.
Legend:
Staphylococcus aureus [1] = test: Antibacterial activity against trimethoprim-resistant Staphylococcus aureus; type: functional
Staphylococcus aureus [2] = test: Antibacterial activity against Staphylococcus aureus infected in mouse assessed as protection of mouse; type: functional
Staphylococcus aureus [3] = test: Antimicrobial activity against wild type Staphylococcus aureus; type: functional
Staphylococcus aureus [4] = test: Antimicrobial activity against methicillin-resistant Staphylococcus aureus CBD-635 assessed as zone of inhibition at 5 mg/ml after 24 hrs by disk diffusion assay; type: functional; conditions: CBD-635, 24 h, read-out: IZ
Staphylococcus aureus [5] = test: Antimicrobial activity against methicillin-resistant Staphylococcus aureus CBD-635 assessed as complete inhibition of bacterial growth after overnight incubation; type: functional
[6] = Aqueous solubility of the compound at pH 7.4 after 18 hrs incubation by HPLC; type: physicochemical
[7] = Aqueous solubility of the compound at pH 2 after 18 hrs incubation by HPLC; type: physicochemical
[8] = Lipophilicity, log D of the compound at pH 7.4; type: physicochemical; conditions: buffer
[9] = Lipophilicity, log D of the compound at pH 3; type: physicochemical; conditions: buffer
Staphylococcus aureus [10] = test: Bactericidal activity against methicillin-resistant Staphylococcus aureus CBD-635 assessed as bacterial killing; type: functional
[11] = Cytotoxicity against human A549 cells assessed as cell viability recovery up to 440 uM by MTT assay relative to untreated control; type: cell-based; conditions: read-out: Activity
[12] = Cytotoxicity against human A549 cells assessed as cell viability recovery at 1.8 to 8.8 uM by MTT assay relative to untreated control; type: cell-based; conditions: read-out: Activity
[13] = Cytotoxicity against human A549 cells assessed as cell viability recovery at 18 uM by MTT assay relative to untreated control; type: cell-based; conditions: read-out: Activity
[14] = Cytotoxicity against human A549 cells assessed as cell viability recovery at 440 uM by MTT assay relative to untreated control; type: cell-based; conditions: read-out: Activity
Staphylococcus aureus [15] = test: Antimicrobial activity against methicillin-resistant Staphylococcus aureus CBD-635 assessed as complete inhibition of bacterial growth at 5 times MIC after overnight incubation in presence of tetrahydrofolic acid; type: functional, organism-based
Staphylococcus aureus [16] = test: Antimicrobial activity against trimethoprim-resistant Staphylococcus aureus assessed as complete inhibition of bacterial growth after 24 hrs; type: functional, organism-based
Staphylococcus aureus [17] = test: Antimicrobial activity against quinazoline-resistant Staphylococcus aureus assessed as complete inhibition of bacterial growth after 24 hrs; type: functional, organism-based
Staphylococcus aureus [18] = test: Antimicrobial activity against wild type Staphylococcus aureus in presence of sulfamethoxazole; type: functional
Staphylococcus aureus [19] = test: Antimicrobial activity against Staphylococcus aureus infected Galleria mellonella assessed as increase in larvae survival at 5 times MIC; type: functional
Staphylococcus aureus [20] = test: Antimicrobial activity against Staphylococcus aureus infected Galleria mellonella assessed as increase in larvae survival at 10 times MIC; type: functional
[21] = pampa, pH 7.4
[22] = pampa, pH 4
Staphylococcus aureus [23] = test: Antimicrobial activity against Staphylococcus aureus; type: functional, organism-based
Bacillus subtilis = test: Antimicrobial activity against Bacillus subtilis; type: functional, organism-based
Escherichia coli = test: Antimicrobial activity against Escherichia coli; type: functional
Klebsiella pneumoniae [24] = test: Antimicrobial activity against Klebsiella pneumoniae; type: functional
Klebsiella pneumoniae [25] = test: Antimicrobial activity against Klebsiella pneumoniae infected in mouse assessed as survival rate at 100 mg/kg; type: functional
Streptococcus pyogenes = test: Antimicrobial activity against Streptococcus pyogenes; type: functional
Salmonella typhimurium = test: Antimicrobial activity against Salmonella typhimurium; type: functional, Salmonella enterica subsp. enterica serovar Typhimurium; conditions: Salmonella enterica
Aspergillus niger = test: Antimicrobial activity against Aspergillus niger; type: functional
Candida albicans = test: Antimicrobial activity against Candida albicans; type: functional
Trichoderma viride = test: Antimicrobial activity against Trichoderma viride; type: functional
[26] = Cytotoxicity against human A549 cells assessed as cell viability recovery up to 407 uM by MTT assay relative to untreated control; type: cell-based; conditions: read-out: Activity
[27] = Cytotoxicity against human A549 cells assessed as cell viability recovery at 1.6 to 16 uM by MTT assay relative to untreated control; type: cell-based; conditions: read-out: Activity
[28] = Cytotoxicity against human A549 cells assessed as cell viability recovery at 41 to 410 uM by MTT assay relative to untreated control; type: cell-based; conditions: read-out: Activity
Staphylococcus aureus [29] = test: Antimicrobial activity against Staphylococcus aureus infected in mouse assessed as increase in mouse survival at 5 times MIC via tail vein relative to untreated control; type: functional
[30] = Cytotoxicity against human A549 cells assessed as cell viability recovery up to 367 uM by MTT assay relative to untreated control; type: cell-based; conditions: read-out: Activity
[31] = Cytotoxicity against human A549 cells assessed as cell viability recovery at 1.5 uM by MTT assay relative to untreated control; type: cell-based; conditions: read-out: Activity
[32] = Cytotoxicity against human A549 cells assessed as cell viability recovery at 370 uM by MTT assay relative to untreated control; type: cell-based; conditions: read-out: Activity
Staphylococcus aureus [33] = test: Antimicrobial activity against N2,N4-dibenzylquinazoline-2,4-diamine-induced methicillin-resistant Staphylococcus aureus CBD-635 mutant assessed as complete inhibition of bacterial growth after overnight incubation; type: functional
Staphylococcus aureus [34] = test: Antimicrobial activity against N2,N4-dibenzylquinazoline-2,4-diamine-induced methicillin-resistant Staphylococcus aureus CBD-635 mutant M1 assessed as complete inhibition of bacterial growth after overnight incubation; type: functional
Staphylococcus aureus [35] = test: Antimicrobial activity against N2,N4-dibenzylquinazoline-2,4-diamine-induced methicillin-resistant Staphylococcus aureus CBD-635 mutant M2 assessed as complete inhibition of bacterial growth after overnight incubation; type: functional
Staphylococcus aureus [36] = test: Antimicrobial activity against N2,N4-dibenzylquinazoline-2,4-diamine-induced methicillin-resistant Staphylococcus aureus CBD-635 mutant M3 assessed as complete inhibition of bacterial growth after overnight incubation; type: functional
Staphylococcus aureus [37] = test: Antimicrobial activity against N2,N4-dibenzylquinazoline-2,4-diamine-induced methicillin-resistant Staphylococcus aureus CBD-635 mutant M4 assessed as complete inhibition of bacterial growth after overnight incubation; type: functional
Staphylococcus aureus [38] = test: Antimicrobial activity against N2,N4-dibenzylquinazoline-2,4-diamine-induced methicillin-resistant Staphylococcus aureus CBD-635 mutant M5 assessed as complete inhibition of bacterial growth after overnight incubation; type: functional
Staphylococcus aureus [39] = test: Antimicrobial activity against N2,N4-dibenzylquinazoline-2,4-diamine-induced methicillin-resistant Staphylococcus aureus CBD-635 mutant M6 assessed as complete inhibition of bacterial growth after overnight incubation; type: functional
Staphylococcus aureus [40] = test: Antimicrobial activity against N2,N4-dibenzylquinazoline-2,4-diamine-induced methicillin-resistant Staphylococcus aureus CBD-635 mutant M7 assessed as complete inhibition of bacterial growth after overnight incubation; type: functional
Staphylococcus aureus [41] = test: Antimicrobial activity against Staphylococcus aureus infected in mouse assessed as increase in mouse survival at 10 times MIC via tail vein relative to untreated control; type: functional, organism-based
Staphylococcus aureus [42] = test: Antimicrobial activity against methicillin-resistant Staphylococcus aureus infected in mouse assessed as complete protection to mouse at MIC via tail vein relative to untreated control; type: functional, organism-based

SMILES: Cc1cc2nc(-c3nccs3)n(-c3ccc4c(N)nc(N)nc4c3)c2cc1C
MIC (Staphylococcus aureus [1]): 0.25 µg/mL (≈ 0.645 µM)
PD50 (Staphylococcus aureus [2]): 2 mg/kg

SMILES: Cc1cc(NS(=O)(=O)c2ccc(N)cc2)no1 [SULFAMETHOXAZOLE]
MIC (Staphylococcus aureus [3]): 2400 µM (≈ 608 µg/mL)

SMILES: CC(C)Nc1nc(NC2CCCCC2)c2ccccc2n1
zone of inhibition at 5000 µg/mL (Staphylococcus aureus [4]): 13 mm
MIC (Staphylococcus aureus [5]): 3.5 µM (≈ 0.995 µg/mL)
solubility at 18 h [6]: ≤ 30 µM
solubility at 18 h [7]: ≥ 30 µM
logD [8]: 4.69
logD [9]: 3.56
MBC50 (Staphylococcus aureus [10]): 8.8 µM (≈ 2.5 µg/mL)
viability [11]: > 60%
viability at up to 8.8 µM [12]: > 100%
viability at 18 µM [13]: 98.6%
viability at 440 µM [14]: 70.3%
inhibition (Staphylococcus aureus [15]): inactive
inhibition (Staphylococcus aureus [16]): Active
inhibition (Staphylococcus aureus [17]): Active
fractional inhibitory concentration index (FICI) (Staphylococcus aureus [18]): 0.1
Survival (Staphylococcus aureus [19]): 40%
Survival (Staphylococcus aureus [20]): 70%
permeability [21]: 783 ×10⁻⁶ cm/s
permeability [22]: 112 ×10⁻⁶ cm/s

EC50 (Staphylococcus aureus [23]): 0.8 µg/mL (≈ 2.57 µM)
MIC (Staphylococcus aureus [23]): 10 µg/mL
EC50 (Bacillus subtilis): 0.7 µg/mL (≈ 2.25 µM)
MIC (Bacillus subtilis): 1 µg/mL (≈ 3.21 µM)
SMILES: Cc1ccc(Nc2nc(-c3ccccc3)nc3ccccc23)cc1

SMILES: COc1cc2nc(N3CCC(Nc4ccc(C(=O)O)cc4)CC3)nc(N)c2cc1OC
MIC (Staphylococcus aureus [23]): 12 µM
MIC (Escherichia coli): 2 µM
MIC (Klebsiella pneumoniae [24]): 12 µM
survival at 100 mg/kg (Klebsiella pneumoniae [25]): 40%

MIC (Staphylococcus aureus [23]): 2 µg/mL
MIC (Bacillus subtilis): 2 µg/mL (≈ 5.71 µM)
MIC (Streptococcus pyogenes): 2 µg/mL (≈ 5.71 µM)
MIC (Salmonella typhimurium): 2 µg/mL (≈ 5.71 µM)
MIC (Escherichia coli): 2 µg/mL
MIC (Aspergillus niger): 2 µg/mL (≈ 5.71 µM)
MIC (Candida albicans): 2 µg/mL (≈ 5.71 µM)
MIC (Trichoderma viride): 2 µg/mL (≈ 5.71 µM)
MIC (Klebsiella pneumoniae [24]): 2 µg/mL
SMILES: c1ccc2c(c1)cc1c3ccccc3nc(-c3csc4ccccc34)n21

SMILES: CCCCNc1nc(NCc2ccccc2)c2ccccc2n1
zone of inhibition at 5000 µg/mL (Staphylococcus aureus [4]): 12 mm
MIC (Staphylococcus aureus [5]): 3.3 µM (≈ 1.01 µg/mL)
solubility at 18 h [6]: ≤ 20 µM
solubility at 18 h [7]: ≥ 30 µM
logD [8]: 3.8
logD [9]: 2.84
MBC50 (Staphylococcus aureus [10]): 0.98 µM (≈ 0.3 µg/mL)
viability [26]: > 60%
viability at up to 16 µM [27]: > 100%
viability at up to 410 µM [28]: > 95%
inhibition (Staphylococcus aureus [15]): inactive
inhibition (Staphylococcus aureus [16]): Active
inhibition (Staphylococcus aureus [17]): Active
fractional inhibitory concentration index (FICI) (Staphylococcus aureus [18]): 0.11
Survival (Staphylococcus aureus [19]): 40%
Survival (Staphylococcus aureus [20]): 70%
Survival (Staphylococcus aureus [29]): 69%
permeability [21]: 1250 ×10⁻⁶ cm/s
permeability [22]: 161 ×10⁻⁶ cm/s

SMILES: c1ccc(CNc2nc(NCc3ccccc3)c3ccccc3n2)cc1
zone of inhibition at 5000 µg/mL (Staphylococcus aureus [4]): 13 mm
MIC (Staphylococcus aureus [5]): 2.9 µM (≈ 0.987 µg/mL)
solubility at 18 h [6]: ≤ 10 µM
solubility at 18 h [7]: ≥ 30 µM
logD [8]: 3.82
logD [9]: 2.82
MBC50 (Staphylococcus aureus [10]): inactive
viability [30]: > 60%
viability at 1.5 µM [31]: 93.2%
viability at 370 µM [32]: 83.6%
MIC (Staphylococcus aureus [33]): > 590 µM
MIC (Staphylococcus aureus [34]): > 590 µM
MIC (Staphylococcus aureus [35]): > 590 µM
MIC (Staphylococcus aureus [36]): > 590 µM
MIC (Staphylococcus aureus [37]): > 590 µM
MIC (Staphylococcus aureus [38]): > 590 µM
MIC (Staphylococcus aureus [39]): > 590 µM
MIC (Staphylococcus aureus [40]): > 590 µM
inhibition (Staphylococcus aureus [15]): inactive
inhibition (Staphylococcus aureus [16]): Active
inhibition (Staphylococcus aureus [17]): Active
fractional inhibitory concentration index (FICI) (Staphylococcus aureus [18]): 0.12
Survival (Staphylococcus aureus [19]): 50%
Survival (Staphylococcus aureus [29]): 69%
Activity (Staphylococcus aureus [41]): Active
Activity (Staphylococcus aureus [42]): Active
permeability [21]: 383 ×10⁻⁶ cm/s
permeability [22]: 312 ×10⁻⁶ cm/s

From ChEMBL document CHEMBL3259619, “Antibacterial activity of a series of N2,N4-disubstituted quinazoline-2,4-diamines” (J Med Chem, 2014)
